# PMC5281649 (European Journal of Nuclear Medicine and Molecular Imaging, 2016)
# Read-outs that look alike come from different tables or passages of the source.
# Key:
# [1] = system: MAO-A; set-up: method as in doi:10.1016/j.jalz.2013.05.1757; details: MAO-B over MAO-A; cited from earlier work
# [2] = 1 and 5 mg daily; moderate AD; compared with placebo; cited from earlier work
# [3] = molecular target: T1, brain MAO-B enzyme (Homo sapiens, UniProt P27338); experiment: PET with [11C]-L-deprenyl-D2: brain MAO-B inhibition after repeated oral sembragiline; type: in vivo; details: for receptor occupancy at 0.2 mg: 168 h; for receptor occupancy at 0.2 mg / receptor occupancy at 1 mg: EC subjects, read-out: Occ (MAO-B occupancy); for receptor occupancy at 0.2 mg / receptor occupancy at 1 mg / [11C]-L-deprenyl-D2 λk3 post-dose: mean (range); for receptor occupancy at 1 mg: 336 h; for [11C]-L-deprenyl-D2 λk3 post-dose: AD patients
# T1 sequence (P27338 1-520): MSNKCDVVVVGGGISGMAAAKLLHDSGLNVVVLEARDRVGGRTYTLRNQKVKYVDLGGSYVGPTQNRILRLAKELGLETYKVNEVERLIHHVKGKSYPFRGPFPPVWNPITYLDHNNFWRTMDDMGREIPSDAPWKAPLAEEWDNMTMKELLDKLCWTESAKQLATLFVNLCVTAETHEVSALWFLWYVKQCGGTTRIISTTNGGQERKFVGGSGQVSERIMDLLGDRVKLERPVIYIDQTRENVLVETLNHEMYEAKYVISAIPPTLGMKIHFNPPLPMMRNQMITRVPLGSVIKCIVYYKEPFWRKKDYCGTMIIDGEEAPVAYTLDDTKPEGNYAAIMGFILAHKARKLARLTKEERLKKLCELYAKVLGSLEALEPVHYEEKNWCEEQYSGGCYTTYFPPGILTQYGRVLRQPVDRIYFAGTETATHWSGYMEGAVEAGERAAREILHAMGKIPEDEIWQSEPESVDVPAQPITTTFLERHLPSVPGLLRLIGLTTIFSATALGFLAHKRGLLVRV
# Protocol: The first dose was administered at the study centre under the supervision of study personnel. On subsequent study days, treatment compliance was assured by intake logs and tablet counting.
# At baseline, each subject underwent a PET scan using [^11C]-L-deprenyl-D2 to measure MAO-B enzyme activity in the brain prior to their first dose of allocated medication. The second scan was performed at trough concentrations at steady state prior to the last drug administration. Before each scan, a cannula was inserted into a radial artery and another into an antecubital vein. A sterile phosphate buffer (pH = 7.4) containing radioligand was injected as a bolus over several seconds into the cubital vein.
# A transmission scan was performed using three rotating ^68Ge rod sources. [^11C]-L-Deprenyl-D2 was injected intravenously as a bolus, and emission data were acquired over 63 min using the ECAT EXACT high-resolution system (Siemens Medical Solutions, Malvern, PA, USA). The injected radioactivity was targeted to approximately 300 MBq. The injected mass of deprenyl was to be ≤100 μg, and ≥50–100-fold lower than the typical administered dose of 5–10 mg deprenyl to patients with Parkinson’s disease. The framing was as follows: 9 frames x 10 s, 2 frames x 15 s, 3 frames x 20 s, 4 frames x 30 s, 4 frames x 60 s, 4 frames x 180 s, 7 frames x 360 s. Images were reconstructed using the standard filtered back-projection, with a 2-mm Hanning filter, a zoom factor of 2.17, and a 128 × 128 matrix, and were corrected for attenuation and scatter. A summation PET image was created for each subject and PET session by averaging across all frames. Time–activity curves were then extracted from selected ROIs.
# Arterial blood samples were used for measurement of radioactivity in whole blood and plasma, as well as to determine the parent fraction of the radioligand, using a reversed-phase high-performance liquid chromatography method (Karolinska University Hospital, Solna, Stockholm, Sweden). A catheter was inserted in the radial artery, and arterial blood was collected continuously for 10 min using an automated blood sampling system at a speed of 5 mL/min. Discrete blood samples were drawn approximately 10, 15, 20, 30, 45 and 60 min after each injection of [^11C]-L-deprenyl-D2.
# Time–activity data were analysed as previously described. Briefly, [^11C]-L-deprenyl-D2 was quantified by the two-tissue compartment model with three rate constants (K 1, k 2, k 3) using the PMOD 3.3 software package (PMOD Group, Zurich, Switzerland), where the tissue compartments represent the free plus non-specifically bound and specifically bound radiotracer. The outcome measure λk 3 was calculated as (K 1/k 2)*k 3, using a non-linear approach, and was used as an estimate for specific binding to MAO-B that was independent of perfusion. […] This is because λk3 is independent of perfusion and has better reproducibility than k3 alone.
# [4] = 5 mg loading day 1 then 0.2 mg q.d. days 2–7, frontal cortex, N = 3
# [5] = 5 mg loading day 1 then 0.2 mg q.d. days 2–7, hippocampus, N = 3
# [6] = 5 mg loading day 1 then 0.2 mg q.d. days 2–7, parietal cortex, N = 3
# [7] = 5 mg loading day 1 then 0.2 mg q.d. days 2–7, striatum, N = 3
# [8] = 5 mg loading day 1 then 0.2 mg q.d. days 2–7, thalamus, N = 3
# [9] = 5 mg loading day 1 then 0.2 mg q.d. days 2–7, whole brain, N = 3
smiles,measurement,setting,value
CC(=O)N[C@H]1CC(=O)N(c2ccc(OCc3cccc(F)c3)cc2)C1 [sembragiline],Potency in inhibiting MAO-B relative to MAO-A,[1],approximately 600 fold
same,Primary efficacy outcome on cognition (ADAS-Cog11),[2],failed on the primary efficacy outcome on cognition
same,MAO-B inhibition at trough (mean values),"[3]; 1 mg, across all brain ROIs and study populations",75–86%
same,MAO-B inhibition (overall range),"[3]; 1 mg, six brain ROIs and study populations, overall",71–88%
same,MAO-B inhibition (mean values),"[3]; 5-mg dose, across brain ROIs",76–86%
same,receptor occupancy at 0.2 mg,[3]; [4],51.7%
same,receptor occupancy at 0.2 mg,[3]; [5],51.6%
same,receptor occupancy at 0.2 mg,[3]; [6],50.7%
same,receptor occupancy at 0.2 mg,[3]; [7],56.1%
same,receptor occupancy at 0.2 mg,[3]; [8],53.7%
same,receptor occupancy at 0.2 mg,[3]; [9],49.1%
same,receptor occupancy at 1 mg,"[3]; 1 mg q.d. for 14 days, frontal cortex, N = 3",76.2%
same,receptor occupancy at 1 mg,"[3]; 1 mg q.d. for 14 days, hippocampus, N = 3",83.9%
same,receptor occupancy at 1 mg,"[3]; 1 mg q.d. for 14 days, parietal cortex, N = 3",76.1%
same,receptor occupancy at 1 mg,"[3]; 1 mg q.d. for 14 days, striatum, N = 3",84.7%
same,receptor occupancy at 1 mg,"[3]; 1 mg q.d. for 14 days, thalamus, N = 3",85.7%
same,receptor occupancy at 1 mg,"[3]; 1 mg q.d. for 14 days, whole brain, N = 3",75.4%
same,[11C]-L-deprenyl-D2 λk3 post-dose,"[3]; 1 mg q.d. for 14 days, frontal cortex, N = 2",0.04 (0.03–0.04)
same,[11C]-L-deprenyl-D2 λk3 post-dose,"[3]; 1 mg q.d. for 14 days, hippocampus, N = 2",0.05 (0.05–0.05)
same,[11C]-L-deprenyl-D2 λk3 post-dose,"[3]; 1 mg q.d. for 14 days, parietal cortex, N = 2",0.04 (0.03–0.05)
same,[11C]-L-deprenyl-D2 λk3 post-dose,"[3]; 1 mg q.d. for 14 days, striatum, N = 2",0.04 (0.04–0.05)
same,[11C]-L-deprenyl-D2 λk3 post-dose,"[3]; 1 mg q.d. for 14 days, thalamus, N = 2",0.04 (0.04–0.04)
same,[11C]-L-deprenyl-D2 λk3 post-dose,"[3]; 1 mg q.d. for 14 days, whole brain, N = 2",0.04 (0.04–0.05)
same,[11C]-L-deprenyl-D2 λk3 post-dose,"[3]; 5 mg loading day 1 then 0.1 mg q.d. days 2–15, frontal cortex, N = 2",0.07 (0.06–0.08)
same,[11C]-L-deprenyl-D2 λk3 post-dose,"[3]; 5 mg loading day 1 then 0.1 mg q.d. days 2–15, hippocampus, N = 2",0.11 (0.10–0.11)
same,[11C]-L-deprenyl-D2 λk3 post-dose,"[3]; 5 mg loading day 1 then 0.1 mg q.d. days 2–15, parietal cortex, N = 2",0.07 (0.07–0.08)
same,[11C]-L-deprenyl-D2 λk3 post-dose,"[3]; 5 mg loading day 1 then 0.1 mg q.d. days 2–15, striatum, N = 2",0.12 (0.11–0.13)
same,[11C]-L-deprenyl-D2 λk3 post-dose,"[3]; 5 mg loading day 1 then 0.1 mg q.d. days 2–15, whole brain, N = 2",0.08 (0.08–0.09)
same,[11C]-L-deprenyl-D2 λk3 post-dose,[3]; [4],0.06 (0.05–0.07)
same,[11C]-L-deprenyl-D2 λk3 post-dose,[3]; [5],0.07 (0.07–0.08)
same,[11C]-L-deprenyl-D2 λk3 post-dose,[3]; [6],0.06 (0.05–0.07)
same,[11C]-L-deprenyl-D2 λk3 post-dose,[3]; [7],0.08 (0.08–0.08)
same,[11C]-L-deprenyl-D2 λk3 post-dose,[3]; [8],0.07 (0.07–0.07)
same,[11C]-L-deprenyl-D2 λk3 post-dose,[3]; [9],0.06 (0.06–0.07)
same,[11C]-L-deprenyl-D2 λk3 post-dose,"[3]; 5 mg q.d. for 6–9 days, frontal cortex, N = 2",0.04 (0.04–0.04)
same,[11C]-L-deprenyl-D2 λk3 post-dose,"[3]; 5 mg q.d. for 6–9 days, hippocampus, N = 2",0.04 (0.03–0.05)
same,[11C]-L-deprenyl-D2 λk3 post-dose,"[3]; 5 mg q.d. for 6–9 days, parietal cortex, N = 2",0.04 (0.03–0.04)
